Test results from patent publication US9446039B2, “Aminoheteroaryl compounds as MTH1 inhibitors” (CEMM—FORSCHUNGSZENTRUM FÜR MOLEKULARE MEDIZIN GMBH, priority 2012, dated 2016).

Tests used:
Format in all cases: binding
[1] = molecular target: T1, SW480 colon carcinoma cells lysate proteins (Homo sapiens, UniProt P22234); conditions: PreyGene PAICS
T1 sequence (P22234 1-425): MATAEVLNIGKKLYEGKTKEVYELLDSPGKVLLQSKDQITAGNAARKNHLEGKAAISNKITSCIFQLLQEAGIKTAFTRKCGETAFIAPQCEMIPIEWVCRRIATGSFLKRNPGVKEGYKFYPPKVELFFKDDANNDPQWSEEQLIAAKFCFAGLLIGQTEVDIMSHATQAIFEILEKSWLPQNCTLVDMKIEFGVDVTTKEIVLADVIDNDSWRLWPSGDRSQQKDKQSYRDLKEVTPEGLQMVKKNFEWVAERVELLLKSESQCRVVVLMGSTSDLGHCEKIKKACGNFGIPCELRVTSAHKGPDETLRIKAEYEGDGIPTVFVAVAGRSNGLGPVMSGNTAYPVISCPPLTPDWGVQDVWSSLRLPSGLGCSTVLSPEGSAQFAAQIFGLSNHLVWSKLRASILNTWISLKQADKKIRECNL

[2] = molecular target: SW480 colon carcinoma cells lysate proteins (Homo sapiens, UniProt P26038); conditions: PreyGene MSN
[3] = molecular target: SW480 colon carcinoma cells lysate proteins (Homo sapiens, UniProt P31939); conditions: PreyGene ATIC
[4] = molecular target: T2, SW480 colon carcinoma cells lysate proteins (Homo sapiens, UniProt P40925); conditions: PreyGene MDH1
T2 sequence (P40925 1-334): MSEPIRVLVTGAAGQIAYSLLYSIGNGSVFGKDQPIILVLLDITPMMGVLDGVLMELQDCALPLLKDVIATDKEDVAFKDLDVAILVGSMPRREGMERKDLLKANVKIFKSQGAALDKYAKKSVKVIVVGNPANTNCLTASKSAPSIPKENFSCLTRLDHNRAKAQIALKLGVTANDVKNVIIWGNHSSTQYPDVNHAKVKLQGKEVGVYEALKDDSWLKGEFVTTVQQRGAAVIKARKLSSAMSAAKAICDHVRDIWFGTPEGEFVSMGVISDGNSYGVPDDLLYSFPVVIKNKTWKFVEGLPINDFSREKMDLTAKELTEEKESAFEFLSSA

[5] = molecular target: SW480 colon carcinoma cells lysate proteins (Homo sapiens, UniProt Q01518); conditions: PreyGene CAP1
[6] = molecular target: SW480 colon carcinoma cells lysate proteins (Homo sapiens, UniProt Q92598); conditions: PreyGene HSPH1
[7] = molecular target: T3, SW480 colon carcinoma cells lysate proteins (Homo sapiens, UniProt Q9BVC6); conditions: PreyGene TMEM109; SW480 cells
T3 sequence (Q9BVC6 34-243): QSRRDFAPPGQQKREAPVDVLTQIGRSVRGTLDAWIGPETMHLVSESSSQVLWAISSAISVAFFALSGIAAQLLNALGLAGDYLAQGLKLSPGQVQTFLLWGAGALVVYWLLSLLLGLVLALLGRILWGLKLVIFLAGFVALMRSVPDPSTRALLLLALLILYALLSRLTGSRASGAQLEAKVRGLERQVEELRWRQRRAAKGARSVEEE

[8] = molecular target: T4, SW480 colon carcinoma cells lysate proteins (Homo sapiens, UniProt Q9UHD8); conditions: PreyGene 09-Sep
T4 sequence (Q9UHD8 1-586): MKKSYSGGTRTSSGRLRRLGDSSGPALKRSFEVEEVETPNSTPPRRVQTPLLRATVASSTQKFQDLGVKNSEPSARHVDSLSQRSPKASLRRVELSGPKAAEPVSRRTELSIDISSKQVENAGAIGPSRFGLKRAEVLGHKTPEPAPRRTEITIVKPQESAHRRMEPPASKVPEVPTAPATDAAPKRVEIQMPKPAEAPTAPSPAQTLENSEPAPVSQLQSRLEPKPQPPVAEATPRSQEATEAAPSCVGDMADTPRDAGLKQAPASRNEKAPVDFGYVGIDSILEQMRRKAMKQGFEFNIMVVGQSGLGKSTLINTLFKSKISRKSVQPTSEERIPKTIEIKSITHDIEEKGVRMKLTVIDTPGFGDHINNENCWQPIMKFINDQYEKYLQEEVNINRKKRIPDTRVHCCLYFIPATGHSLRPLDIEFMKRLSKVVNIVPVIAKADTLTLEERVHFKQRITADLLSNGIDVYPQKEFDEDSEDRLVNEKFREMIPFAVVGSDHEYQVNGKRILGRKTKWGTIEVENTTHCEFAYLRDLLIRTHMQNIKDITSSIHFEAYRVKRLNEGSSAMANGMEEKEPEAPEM

[9] = molecular target: SW480 colon carcinoma cells lysate proteins (Homo sapiens, UniProt Q9Y266); conditions: PreyGene NUDC; SW480 cells
Sequence of SW480 colon carcinoma cells lysate proteins (Homo sapiens, UniProt Q9Y266) (Q9Y266 whole entry): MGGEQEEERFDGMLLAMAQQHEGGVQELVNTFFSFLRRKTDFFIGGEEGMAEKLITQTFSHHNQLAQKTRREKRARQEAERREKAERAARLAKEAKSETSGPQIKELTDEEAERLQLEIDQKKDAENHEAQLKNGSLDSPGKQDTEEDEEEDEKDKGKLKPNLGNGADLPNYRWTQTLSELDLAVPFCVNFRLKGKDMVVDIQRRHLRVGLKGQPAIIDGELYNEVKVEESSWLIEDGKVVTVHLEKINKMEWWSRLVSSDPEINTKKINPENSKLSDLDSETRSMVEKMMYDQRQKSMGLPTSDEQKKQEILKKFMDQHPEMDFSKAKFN

Sequence of SW480 colon carcinoma cells lysate proteins (Homo sapiens, UniProt P26038) (P26038 whole entry): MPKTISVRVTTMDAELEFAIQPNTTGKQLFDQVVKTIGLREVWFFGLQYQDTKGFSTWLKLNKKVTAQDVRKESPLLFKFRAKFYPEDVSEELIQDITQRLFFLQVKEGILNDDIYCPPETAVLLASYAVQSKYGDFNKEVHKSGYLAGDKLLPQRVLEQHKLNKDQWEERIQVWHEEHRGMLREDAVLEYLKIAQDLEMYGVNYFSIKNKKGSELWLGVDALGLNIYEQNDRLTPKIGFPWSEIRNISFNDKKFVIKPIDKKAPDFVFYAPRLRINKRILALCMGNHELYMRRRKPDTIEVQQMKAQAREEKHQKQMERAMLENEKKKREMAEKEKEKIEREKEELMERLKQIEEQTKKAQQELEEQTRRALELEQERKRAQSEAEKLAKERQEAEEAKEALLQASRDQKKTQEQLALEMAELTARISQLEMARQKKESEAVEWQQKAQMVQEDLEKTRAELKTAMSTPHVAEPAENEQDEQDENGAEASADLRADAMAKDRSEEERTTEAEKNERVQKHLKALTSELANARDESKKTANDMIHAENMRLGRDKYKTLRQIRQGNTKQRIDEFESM
Sequence of SW480 colon carcinoma cells lysate proteins (Homo sapiens, UniProt Q92598) (Q92598 whole entry): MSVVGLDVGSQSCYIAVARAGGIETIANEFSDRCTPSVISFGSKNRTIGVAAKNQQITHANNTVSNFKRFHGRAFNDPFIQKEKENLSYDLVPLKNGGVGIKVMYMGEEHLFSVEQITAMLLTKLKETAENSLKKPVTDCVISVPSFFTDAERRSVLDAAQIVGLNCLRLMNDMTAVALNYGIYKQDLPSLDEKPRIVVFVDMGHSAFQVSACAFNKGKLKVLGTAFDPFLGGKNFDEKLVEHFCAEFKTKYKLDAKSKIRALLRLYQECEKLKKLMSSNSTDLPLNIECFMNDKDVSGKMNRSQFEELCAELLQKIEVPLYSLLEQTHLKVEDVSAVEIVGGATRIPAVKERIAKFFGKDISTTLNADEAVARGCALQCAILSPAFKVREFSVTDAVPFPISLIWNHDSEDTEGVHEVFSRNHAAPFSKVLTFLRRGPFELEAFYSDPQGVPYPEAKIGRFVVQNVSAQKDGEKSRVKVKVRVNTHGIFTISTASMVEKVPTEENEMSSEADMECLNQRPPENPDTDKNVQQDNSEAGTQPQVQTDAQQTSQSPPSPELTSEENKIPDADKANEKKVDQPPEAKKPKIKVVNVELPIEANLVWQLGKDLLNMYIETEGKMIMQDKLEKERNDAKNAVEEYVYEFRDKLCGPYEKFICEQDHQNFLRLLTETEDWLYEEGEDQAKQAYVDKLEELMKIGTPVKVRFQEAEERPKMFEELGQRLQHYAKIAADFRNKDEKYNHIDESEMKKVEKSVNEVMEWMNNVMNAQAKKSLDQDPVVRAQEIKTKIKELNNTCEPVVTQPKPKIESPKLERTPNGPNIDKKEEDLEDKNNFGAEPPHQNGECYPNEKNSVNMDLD
Sequence of SW480 colon carcinoma cells lysate proteins (Homo sapiens, UniProt Q01518) (Q01518 whole entry): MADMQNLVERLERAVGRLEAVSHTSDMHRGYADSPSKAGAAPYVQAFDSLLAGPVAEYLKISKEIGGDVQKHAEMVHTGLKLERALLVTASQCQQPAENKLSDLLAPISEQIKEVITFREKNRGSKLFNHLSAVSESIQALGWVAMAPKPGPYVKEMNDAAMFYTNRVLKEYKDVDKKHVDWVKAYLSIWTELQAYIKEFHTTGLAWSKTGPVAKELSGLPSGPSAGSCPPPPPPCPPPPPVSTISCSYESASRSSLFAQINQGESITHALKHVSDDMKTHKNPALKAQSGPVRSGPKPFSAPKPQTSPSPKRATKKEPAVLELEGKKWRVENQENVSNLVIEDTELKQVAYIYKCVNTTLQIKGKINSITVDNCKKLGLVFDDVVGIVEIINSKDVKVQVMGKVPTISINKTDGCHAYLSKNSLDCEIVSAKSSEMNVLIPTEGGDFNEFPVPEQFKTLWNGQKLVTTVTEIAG
Sequence of SW480 colon carcinoma cells lysate proteins (Homo sapiens, UniProt P31939) (P31939 whole entry): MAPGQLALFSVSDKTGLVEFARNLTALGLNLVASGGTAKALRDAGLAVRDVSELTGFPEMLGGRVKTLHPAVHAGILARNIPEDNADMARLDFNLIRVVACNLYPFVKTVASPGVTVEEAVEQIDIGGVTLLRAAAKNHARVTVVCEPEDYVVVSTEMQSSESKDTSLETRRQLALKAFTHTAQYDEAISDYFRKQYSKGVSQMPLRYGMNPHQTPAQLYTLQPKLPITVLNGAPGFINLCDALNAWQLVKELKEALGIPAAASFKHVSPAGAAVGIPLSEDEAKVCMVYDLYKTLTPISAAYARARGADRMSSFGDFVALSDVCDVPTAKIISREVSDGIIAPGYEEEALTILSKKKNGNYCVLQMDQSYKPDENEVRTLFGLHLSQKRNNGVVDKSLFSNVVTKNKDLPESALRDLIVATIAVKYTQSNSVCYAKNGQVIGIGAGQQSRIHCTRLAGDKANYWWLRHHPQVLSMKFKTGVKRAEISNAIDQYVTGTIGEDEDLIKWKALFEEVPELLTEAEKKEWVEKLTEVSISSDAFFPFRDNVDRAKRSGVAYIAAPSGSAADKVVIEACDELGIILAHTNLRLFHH

C[C@H](Oc1cc(-c2cnn(C3CCNCC3)c2)cnc1N)c1c(Cl)ccc(F)c1Cl [(5)-crizotinib]
0: SC.Exp. 2-1 [1] | SC.Exp. 2-2 [1] | SC.Exp. 2-1 [2] | SC.Exp. 2-2 [2] | SC.Exp. 2-1 [3] | SC.Exp. 2-2 [3] | SC.Exp. 2-1 [4] | SC.Exp. 2-2 [4] | SC.Exp. 2-1 [5] | SC.Exp. 2-2 [5] | SC.Exp. 2-1 [6] | SC.Exp. 2-2 [6] | AvgP [7] | SC.Exp. 2-1 [7] | SC.Exp. 2-1 [8] | AvgP [9] | SC.Exp. 1-1 [9] | SC.Exp. 2-1 [9] | SC.Exp. 2-2 [9]
6: SC.Exp. 1-2 [4]
3: SC.Exp. 1-1 [3] | SC.Exp. 1-1 [5] | SC.Exp. Sum [7]
0.2291: AvgP [2]
0.3081: AvgP [5]
7: SC.Exp. 1-1 [1] | Sum (SC.Exp.) [3] | SC.Exp. 1-1 [6]
2: SC.Exp. 1-2 [5] | SC.Exp. 1-2 [8] | SC.Exp. 2-2 [8]
0.323: AvgP [8]
0.4615: AvgP [4]
12: Sum (SC.Exp.) [1] | Sum (SC.Exp.) [6]
1: SC.Exp. 1-1 [7] | SC.Exp. 1-2 [7] | SC.Exp. 2-2 [7] | SC.Exp. 1-1 [8] | SC.Exp. 1-2 [9] | SC.Exp. Sum [9]
0.4369: AvgP [3]
11: SC.Exp. 1-1 [2] | SC.Exp. 1-2 [2] | Sum (SC.Exp.) [4]
0.4488: AvgP [1]
0.4697: AvgP [6]
4: SC.Exp. 1-2 [3]
22: Sum (SC.Exp.) [2]
5: SC.Exp. 1-2 [1] | SC.Exp. 1-1 [4] | Sum (SC.Exp.) [5] | SC.Exp. 1-2 [6] | Sum (SC.Exp.) [8]
